Earlier results on one substance are cited in patent publication US20030211175A1, “Methods and compositions for dietary supplements” (priority 2002, published 2003).

Turning to Chromium picolinate, under “human”, the “reducing an elevated blood glucose level” value is given as “moderately effective”. The toxicity result (in vivo) is reported as “considerable toxicity”.
